Measured values taken from ChEMBL document CHEMBL1155836, “Discovery of imidazole carboxamides as potent and selective CCK1R agonists” (Bioorg Med Chem Lett, 2008).
Calls of active or inactive are those of the source. The rule behind the calls is not given here.

biological target: T1, Gastrin/cholecystokinin type B receptor (Homo sapiens) (UniProt P32239); assay: Agonist activity against human CCK2 receptor assessed as receptor activation at 10000 nM; format: functional
T1 sequence (whole entry): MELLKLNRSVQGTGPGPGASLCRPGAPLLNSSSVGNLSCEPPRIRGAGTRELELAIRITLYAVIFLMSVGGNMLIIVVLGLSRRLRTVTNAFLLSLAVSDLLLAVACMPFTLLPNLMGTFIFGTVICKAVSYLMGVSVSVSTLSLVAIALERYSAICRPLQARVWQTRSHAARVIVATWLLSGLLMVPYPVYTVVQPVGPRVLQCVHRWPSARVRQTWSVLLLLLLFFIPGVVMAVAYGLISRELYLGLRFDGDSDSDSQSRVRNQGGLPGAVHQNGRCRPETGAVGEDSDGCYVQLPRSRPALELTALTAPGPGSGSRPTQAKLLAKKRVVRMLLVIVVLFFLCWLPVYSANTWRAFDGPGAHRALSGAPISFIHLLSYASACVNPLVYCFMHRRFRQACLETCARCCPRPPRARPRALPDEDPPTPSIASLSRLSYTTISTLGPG

| Activity | SMILES |
| --- | --- |
| < 20% | COc1cccc(-n2cc(C(=O)N3CCN(c4ccc(Cl)c(Cl)c4)CC3)nc2-c2ccc(C)cc2)c1 |
| < 20% | COc1cccc(-n2cc(C(=O)N3CCN(c4ccc5ccccc5n4)CC3)nc2-c2ccc(C)cc2)c1 |
| < 20% | COc1cccc(-n2cc(C(=O)N3CCN(c4cc5ccccc5cc4C(=O)O)CC3)nc2-c2ccc(C)cc2)c1 |
| < 12% | CCOc1cccc(-n2cc(C(=O)N3CCN(c4ccc5ccccc5c4)CC3)nc2-c2cccc(F)c2)c1 |
| < 21% | Cc1ccc(-c2nc(C(=O)N3CCN(c4ccc5ccccc5c4)CC3)cn2-c2cccc3c2OCCO3)cc1 |
| < 12% | CCOc1cccc(-n2cc(C(=O)N3CCN(c4ccc5ccccc5c4)CC3)nc2-c2ccccc2)c1 |
| < 20% | COc1cccc(-n2cc(C(=O)N3CCN(c4nc5ccccc5[nH]4)CC3)nc2-c2ccc(C)cc2)c1 |
| < 20% | COc1cccc(-n2cc(C(=O)N3CCN(c4cccc5ccccc45)CC3)nc2-c2ccc(C)cc2)c1 |
| < 36% | O=C(O)c1cc(N2CCN(C(=O)c3cn(-c4ccc5c(c4)OCCO5)c(-c4ccc(F)cc4)n3)CC2)cc2ccccc12 |

biological target: T1, Gastrin/cholecystokinin type B receptor (Homo sapiens); assay: Agonist activity against human CCK2 receptor; format: functional

| Activity | SMILES |
| --- | --- |
| inactive | COc1cccc(-n2cc(C(=O)N3CCN(c4ccc(Cl)c(Cl)c4)CC3)nc2-c2ccc(C)cc2)c1 |
| inactive | COc1cccc(-n2cc(C(=O)N3CCN(c4ccc5ccccc5n4)CC3)nc2-c2ccc(C)cc2)c1 |
| inactive | COc1cccc(-n2cc(C(=O)N3CCN(c4cc5ccccc5cc4C(=O)O)CC3)nc2-c2ccc(C)cc2)c1 |
| inactive | CCOc1cccc(-n2cc(C(=O)N3CCN(c4ccc5ccccc5c4)CC3)nc2-c2cccc(F)c2)c1 |
| inactive | Cc1ccc(-c2nc(C(=O)N3CCN(c4ccc5ccccc5c4)CC3)cn2-c2cccc3c2OCCO3)cc1 |
| inactive | CCOc1cccc(-n2cc(C(=O)N3CCN(c4ccc5ccccc5c4)CC3)nc2-c2ccccc2)c1 |
| inactive | COc1cccc(-n2cc(C(=O)N3CCN(c4nc5ccccc5[nH]4)CC3)nc2-c2ccc(C)cc2)c1 |
| inactive | COc1cccc(-n2cc(C(=O)N3CCN(c4cccc5ccccc45)CC3)nc2-c2ccc(C)cc2)c1 |
| inactive | O=C(O)c1cc(N2CCN(C(=O)c3cn(-c4ccc5c(c4)OCCO5)c(-c4ccc(F)cc4)n3)CC2)cc2ccccc12 |

biological target: T2, Cholecystokinin receptor type A (Homo sapiens, UniProt P32238); assay: Inhibition of human CCK1 receptor
T2 sequence (P32238 whole entry): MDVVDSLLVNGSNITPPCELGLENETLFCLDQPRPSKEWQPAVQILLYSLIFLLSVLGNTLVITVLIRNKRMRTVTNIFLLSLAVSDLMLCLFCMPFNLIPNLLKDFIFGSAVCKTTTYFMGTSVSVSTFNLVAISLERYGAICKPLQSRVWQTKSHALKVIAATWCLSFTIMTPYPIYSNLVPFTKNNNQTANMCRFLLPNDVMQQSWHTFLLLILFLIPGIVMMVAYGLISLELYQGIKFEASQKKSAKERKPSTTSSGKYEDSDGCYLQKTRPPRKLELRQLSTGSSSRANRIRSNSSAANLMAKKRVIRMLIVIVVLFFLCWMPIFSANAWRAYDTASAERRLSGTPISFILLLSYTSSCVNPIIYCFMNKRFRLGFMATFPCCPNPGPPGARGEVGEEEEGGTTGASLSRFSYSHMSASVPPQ

| IC50 | SMILES |
| --- | --- |
| 8 nM | COc1cccc(-n2cc(C(=O)N3CCN(c4ccc(Cl)c(Cl)c4)CC3)nc2-c2ccc(C)cc2)c1 |
| 16 nM | COc1cccc(-n2cc(C(=O)N3CCN(c4ccc5ccccc5n4)CC3)nc2-c2ccc(C)cc2)c1 |
| 1.3 nM | COc1cccc(-n2cc(C(=O)N3CCN(c4cc5ccccc5cc4C(=O)O)CC3)nc2-c2ccc(C)cc2)c1 |
| 35 nM | CCOc1cccc(-n2cc(C(=O)N3CCN(c4ccc5ccccc5c4)CC3)nc2-c2cccc(F)c2)c1 |
| 140 nM | Cc1ccc(-c2nc(C(=O)N3CCN(c4ccc5ccccc5c4)CC3)cn2-c2cccc3c2OCCO3)cc1 |
| 3.4 nM | CCOc1cccc(-n2cc(C(=O)N3CCN(c4ccc5ccccc5c4)CC3)nc2-c2ccccc2)c1 |
| 17 nM | COc1cccc(-n2cc(C(=O)N3CCN(c4nc5ccccc5[nH]4)CC3)nc2-c2ccc(C)cc2)c1 |
| 630 nM | COc1cccc(-n2cc(C(=O)N3CCN(c4cccc5ccccc45)CC3)nc2-c2ccc(C)cc2)c1 |

biological target: T1, Gastrin/cholecystokinin type B receptor (Homo sapiens); assay: Inhibition of human CCK2 receptor at 10000 nM

| inhibition | SMILES |
| --- | --- |
| < 24% | O=C(O)c1cc(N2CCN(C(=O)c3cn(-c4ccc5c(c4)OCCO5)c(-c4ccc(F)cc4)n3)CC2)cc2ccccc12 |

biological target: T2, Cholecystokinin receptor type A; assay: Agonist activity against human CCK1 receptor; format: functional

| EC50 | SMILES |
| --- | --- |
| 25 nM | COc1cccc(-n2cc(C(=O)N3CCN(c4ccc(Cl)c(Cl)c4)CC3)nc2-c2ccc(C)cc2)c1 |
| 43 nM | COc1cccc(-n2cc(C(=O)N3CCN(c4ccc5ccccc5n4)CC3)nc2-c2ccc(C)cc2)c1 |
| 0.4 nM | COc1cccc(-n2cc(C(=O)N3CCN(c4cc5ccccc5cc4C(=O)O)CC3)nc2-c2ccc(C)cc2)c1 |
| 105 nM | CCOc1cccc(-n2cc(C(=O)N3CCN(c4ccc5ccccc5c4)CC3)nc2-c2cccc(F)c2)c1 |
| 471 nM | Cc1ccc(-c2nc(C(=O)N3CCN(c4ccc5ccccc5c4)CC3)cn2-c2cccc3c2OCCO3)cc1 |
| 7.4 nM | CCOc1cccc(-n2cc(C(=O)N3CCN(c4ccc5ccccc5c4)CC3)nc2-c2ccccc2)c1 |
| 9.1 nM | COc1cccc(-n2cc(C(=O)N3CCN(c4nc5ccccc5[nH]4)CC3)nc2-c2ccc(C)cc2)c1 |
| 5370 nM | COc1cccc(-n2cc(C(=O)N3CCN(c4cccc5ccccc45)CC3)nc2-c2ccc(C)cc2)c1 |

biological target: T3, Cholecystokinin receptor type A (Homo sapiens) (UniProt P32238); assay: Agonist activity against human CCK1 receptor assessed as receptor activation at 10000 nM; format: functional
T3 sequence (whole entry): T2 sequence (P32238 whole entry)

| Activity | SMILES |
| --- | --- |
| 99% | COc1cccc(-n2cc(C(=O)N3CCN(c4ccc(Cl)c(Cl)c4)CC3)nc2-c2ccc(C)cc2)c1 |
| 89% | COc1cccc(-n2cc(C(=O)N3CCN(c4ccc5ccccc5n4)CC3)nc2-c2ccc(C)cc2)c1 |
| 92% | COc1cccc(-n2cc(C(=O)N3CCN(c4cc5ccccc5cc4C(=O)O)CC3)nc2-c2ccc(C)cc2)c1 |
| 106% | CCOc1cccc(-n2cc(C(=O)N3CCN(c4ccc5ccccc5c4)CC3)nc2-c2cccc(F)c2)c1 |
| 70% | Cc1ccc(-c2nc(C(=O)N3CCN(c4ccc5ccccc5c4)CC3)cn2-c2cccc3c2OCCO3)cc1 |
| 100% | CCOc1cccc(-n2cc(C(=O)N3CCN(c4ccc5ccccc5c4)CC3)nc2-c2ccccc2)c1 |
| 89% | COc1cccc(-n2cc(C(=O)N3CCN(c4nc5ccccc5[nH]4)CC3)nc2-c2ccc(C)cc2)c1 |
| 30% | COc1cccc(-n2cc(C(=O)N3CCN(c4cccc5ccccc45)CC3)nc2-c2ccc(C)cc2)c1 |
| 97% | O=C(O)c1cc(N2CCN(C(=O)c3cn(-c4ccc5c(c4)OCCO5)c(-c4ccc(F)cc4)n3)CC2)cc2ccccc12 |
